ChEMBL document CHEMBL1201862, “PubChem BioAssay data set” (2004)
Each block holds one compound with its values, some of them ahead of it. The source made the active and inactive calls.

Key:
[1] = Cytotoxicity screening for potential Inhibitors of Bacterial Capsule Biogenesis. [Related pubchem assays (depositor defined):AID488970]; format: functional
[2] = molecular target: T1, Nucleotide-binding oligomerization domain-containing protein 2 (Homo sapiens, UniProt Q9HC29); test: PubChem AID 2334; format: functional
T1 sequence (Q9HC29 whole entry, the tested form may be a part): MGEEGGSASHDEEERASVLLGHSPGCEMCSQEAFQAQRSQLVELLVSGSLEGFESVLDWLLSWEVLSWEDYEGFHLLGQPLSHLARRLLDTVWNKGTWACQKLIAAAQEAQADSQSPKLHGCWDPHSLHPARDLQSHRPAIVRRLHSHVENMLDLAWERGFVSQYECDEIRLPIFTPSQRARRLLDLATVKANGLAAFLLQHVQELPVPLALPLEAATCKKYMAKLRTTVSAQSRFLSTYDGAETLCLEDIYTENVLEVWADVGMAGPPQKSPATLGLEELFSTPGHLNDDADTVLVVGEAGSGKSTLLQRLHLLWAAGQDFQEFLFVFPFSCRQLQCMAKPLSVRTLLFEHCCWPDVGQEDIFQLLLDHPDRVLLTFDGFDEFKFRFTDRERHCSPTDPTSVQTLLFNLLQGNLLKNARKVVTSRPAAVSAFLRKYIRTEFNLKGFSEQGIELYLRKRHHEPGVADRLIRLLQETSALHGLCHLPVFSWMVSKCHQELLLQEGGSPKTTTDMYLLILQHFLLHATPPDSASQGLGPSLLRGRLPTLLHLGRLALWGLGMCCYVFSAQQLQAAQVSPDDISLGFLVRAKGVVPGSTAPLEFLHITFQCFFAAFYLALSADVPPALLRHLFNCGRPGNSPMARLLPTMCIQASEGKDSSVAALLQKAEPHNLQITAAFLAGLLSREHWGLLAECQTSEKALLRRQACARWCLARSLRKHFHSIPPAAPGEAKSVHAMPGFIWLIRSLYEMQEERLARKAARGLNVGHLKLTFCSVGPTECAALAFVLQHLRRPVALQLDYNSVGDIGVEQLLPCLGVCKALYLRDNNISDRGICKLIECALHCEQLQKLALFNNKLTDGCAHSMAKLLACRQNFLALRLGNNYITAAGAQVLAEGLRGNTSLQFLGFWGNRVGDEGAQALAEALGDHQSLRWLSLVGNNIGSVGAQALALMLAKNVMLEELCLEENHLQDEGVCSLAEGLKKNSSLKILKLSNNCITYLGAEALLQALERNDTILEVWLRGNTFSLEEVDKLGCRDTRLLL

[3] = molecular target: T1, Nucleotide-binding oligomerization domain-containing protein 2; test: NOD2 signaling inhibitors, cell-based, luminescence, uHTS, HEK293 (AID 1566); format: functional
[4] = molecular target: T2, Cysteine protease ATG4B (Homo sapiens, UniProt Q9Y4P1); format: functional;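 note: Fluorescence-based dose-response confirmation assay measuring inhibition of ATG4B activity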
T2 sequence (Q9Y4P1 whole entry): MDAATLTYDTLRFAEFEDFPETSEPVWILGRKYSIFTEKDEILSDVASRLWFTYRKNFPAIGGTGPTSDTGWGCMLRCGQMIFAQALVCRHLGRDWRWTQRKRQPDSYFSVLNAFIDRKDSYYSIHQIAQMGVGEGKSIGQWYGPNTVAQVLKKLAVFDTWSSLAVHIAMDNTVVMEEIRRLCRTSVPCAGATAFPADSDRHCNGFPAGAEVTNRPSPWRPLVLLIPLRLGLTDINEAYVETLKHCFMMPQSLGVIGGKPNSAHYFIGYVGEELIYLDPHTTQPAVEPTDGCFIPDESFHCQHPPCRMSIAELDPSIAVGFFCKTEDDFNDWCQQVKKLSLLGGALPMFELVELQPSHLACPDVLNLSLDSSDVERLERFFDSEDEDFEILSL

[5] = molecular target: T3, Short transient receptor potential channel 4 (Mus musculus, UniProt Q9QUQ5); test: mouse TRPC4 channel inhibitors, dose response, cell-based, HEK293 TRPC4/mu-opioid, Fluo-4 calcium (AID 434942); format: functional;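 note: potency of inhibitors blocking the TRPC4 calcium response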
T3 sequence (Q9QUQ5 whole entry): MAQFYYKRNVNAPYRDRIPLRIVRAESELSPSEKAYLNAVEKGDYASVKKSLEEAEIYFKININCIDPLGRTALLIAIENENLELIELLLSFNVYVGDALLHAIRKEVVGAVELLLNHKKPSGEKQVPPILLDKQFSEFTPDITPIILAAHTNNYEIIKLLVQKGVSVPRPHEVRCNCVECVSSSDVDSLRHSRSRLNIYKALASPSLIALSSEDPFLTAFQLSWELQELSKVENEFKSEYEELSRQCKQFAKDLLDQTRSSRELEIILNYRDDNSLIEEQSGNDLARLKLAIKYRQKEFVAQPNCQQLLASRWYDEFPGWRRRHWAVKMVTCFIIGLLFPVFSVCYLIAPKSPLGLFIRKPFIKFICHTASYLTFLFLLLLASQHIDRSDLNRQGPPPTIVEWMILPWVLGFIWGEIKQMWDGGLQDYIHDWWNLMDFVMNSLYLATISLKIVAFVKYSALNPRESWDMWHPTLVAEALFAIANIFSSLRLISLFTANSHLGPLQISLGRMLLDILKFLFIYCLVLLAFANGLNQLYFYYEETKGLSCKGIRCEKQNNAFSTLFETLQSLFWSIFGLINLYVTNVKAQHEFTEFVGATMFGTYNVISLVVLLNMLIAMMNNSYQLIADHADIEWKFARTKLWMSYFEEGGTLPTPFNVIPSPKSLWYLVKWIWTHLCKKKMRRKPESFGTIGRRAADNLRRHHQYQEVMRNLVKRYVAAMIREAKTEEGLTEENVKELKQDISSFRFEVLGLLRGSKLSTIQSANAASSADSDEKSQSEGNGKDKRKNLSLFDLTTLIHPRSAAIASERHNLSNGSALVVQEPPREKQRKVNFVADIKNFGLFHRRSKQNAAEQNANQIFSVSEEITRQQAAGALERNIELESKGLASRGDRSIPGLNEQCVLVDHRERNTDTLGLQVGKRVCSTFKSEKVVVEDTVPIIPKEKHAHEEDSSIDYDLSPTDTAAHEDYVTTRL

[6] = molecular target: Phospholipase A2 (Homo sapiens, UniProt P04054); format: functional;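 note: confirmatory dose-response counterscreen on phospholipase A2, testing hits that came from an ultra-high-throughput screen for ATG4B inhibitors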
Sequence of Phospholipase A2 (P04054 whole entry, the tested form may be a part): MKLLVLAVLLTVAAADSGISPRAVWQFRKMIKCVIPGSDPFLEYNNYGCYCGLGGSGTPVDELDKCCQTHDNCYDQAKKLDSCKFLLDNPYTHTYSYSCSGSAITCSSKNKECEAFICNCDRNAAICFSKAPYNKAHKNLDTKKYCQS

[7] = molecular target: Nucleotide-binding oligomerization domain-containing protein 1 (Homo sapiens, UniProt Q9Y239); test: NOD1 signaling inhibitors, SAR follow-up, revised (AID 2333); format: functional
Sequence of Nucleotide-binding oligomerization domain-containing protein 1 (Q9Y239 whole entry, the tested form may be a part): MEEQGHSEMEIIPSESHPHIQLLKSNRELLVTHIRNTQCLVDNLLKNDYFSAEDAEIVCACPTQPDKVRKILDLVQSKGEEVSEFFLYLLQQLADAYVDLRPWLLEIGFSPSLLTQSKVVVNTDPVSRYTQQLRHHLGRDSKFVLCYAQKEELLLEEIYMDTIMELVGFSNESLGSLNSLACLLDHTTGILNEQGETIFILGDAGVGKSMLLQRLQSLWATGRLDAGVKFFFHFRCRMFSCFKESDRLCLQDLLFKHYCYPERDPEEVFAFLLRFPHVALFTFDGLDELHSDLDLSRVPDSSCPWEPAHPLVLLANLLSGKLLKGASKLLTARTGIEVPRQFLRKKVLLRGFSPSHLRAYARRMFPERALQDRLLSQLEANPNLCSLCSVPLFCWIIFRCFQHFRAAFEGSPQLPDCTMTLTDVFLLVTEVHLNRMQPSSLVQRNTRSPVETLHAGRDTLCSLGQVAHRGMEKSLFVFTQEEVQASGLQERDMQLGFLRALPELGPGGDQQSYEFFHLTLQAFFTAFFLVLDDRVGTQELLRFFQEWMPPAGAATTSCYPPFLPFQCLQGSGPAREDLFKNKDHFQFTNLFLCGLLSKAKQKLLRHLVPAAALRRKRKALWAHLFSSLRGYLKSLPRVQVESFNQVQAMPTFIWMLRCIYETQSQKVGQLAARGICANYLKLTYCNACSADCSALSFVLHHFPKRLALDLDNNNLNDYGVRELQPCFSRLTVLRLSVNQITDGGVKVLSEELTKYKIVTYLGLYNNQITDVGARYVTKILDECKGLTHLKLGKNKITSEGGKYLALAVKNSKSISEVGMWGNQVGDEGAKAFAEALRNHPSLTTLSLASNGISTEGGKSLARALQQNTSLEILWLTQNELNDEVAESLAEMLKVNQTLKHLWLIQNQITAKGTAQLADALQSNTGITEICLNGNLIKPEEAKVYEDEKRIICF

[8] = molecular target: Tumor necrosis factor (Homo sapiens, UniProt P01375); test: TNFa-triggered NF-kB activation inhibitors, SAR follow-up, cell-based, revised (AID 2337); format: functional
Sequence of Tumor necrosis factor (P01375 whole entry): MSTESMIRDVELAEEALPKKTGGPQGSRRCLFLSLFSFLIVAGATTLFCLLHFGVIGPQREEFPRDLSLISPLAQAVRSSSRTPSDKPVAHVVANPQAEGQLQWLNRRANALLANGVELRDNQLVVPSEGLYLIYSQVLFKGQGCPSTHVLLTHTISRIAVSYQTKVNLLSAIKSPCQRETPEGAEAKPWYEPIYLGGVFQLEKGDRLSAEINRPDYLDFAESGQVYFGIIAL

[9] = molecular target: T4, G-protein coupled receptor 35 (Homo sapiens, UniProt Q9HC97); test: SAR Analysis for the identification of Selective Antagonists of ERK1/2 Activity in GPR35-Overexpressing U2OS Cells. [Related pubchem assays: 2079, 2058 ]; format: functional, cell-based
T4 sequence (Q9HC97 whole entry): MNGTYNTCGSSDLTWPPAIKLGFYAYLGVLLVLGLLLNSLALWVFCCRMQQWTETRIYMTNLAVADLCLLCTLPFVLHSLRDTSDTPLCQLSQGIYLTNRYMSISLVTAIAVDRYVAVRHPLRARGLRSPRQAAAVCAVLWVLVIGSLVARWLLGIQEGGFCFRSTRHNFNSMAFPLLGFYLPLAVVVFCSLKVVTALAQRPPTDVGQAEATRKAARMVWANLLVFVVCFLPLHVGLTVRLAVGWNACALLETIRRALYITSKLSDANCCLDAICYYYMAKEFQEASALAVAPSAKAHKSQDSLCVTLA

[10] = molecular target: T4, G-protein coupled receptor 35; test: GPR35 antagonists blocking zaprinast-driven arrestin recruitment, primary screen, imaging, U2OS, beta-arrestin-GFP, zaprinast agonist (AID 2058); format: functional;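 note: antagonist potency meaning inhibition of agonist-induced arrestin redistribution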
[11] = inhibitors of intracellular T. cruzi replication, confirmation, NIH3T3 host cells, beta-gal luminescence (AID 2044); format: functional, cell-based;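 note: intracellular parasites grown in NIH/3T3 mouse fibroblasts as host cells; luminescent beta-galactosidase reporter signal from transgenic T. cruzi replicating inside host cells; inhibitors lower the luminescence signal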
[12] = molecular target: G-protein coupled receptor 55 (Homo sapiens, UniProt Q9Y2T6); test: GPR55 antagonists, SAR follow-up, counter-screen for GPR35 antagonist project, imaging, image-based (AID 2397); format: functional
Sequence of G-protein coupled receptor 55 (Q9Y2T6 whole entry): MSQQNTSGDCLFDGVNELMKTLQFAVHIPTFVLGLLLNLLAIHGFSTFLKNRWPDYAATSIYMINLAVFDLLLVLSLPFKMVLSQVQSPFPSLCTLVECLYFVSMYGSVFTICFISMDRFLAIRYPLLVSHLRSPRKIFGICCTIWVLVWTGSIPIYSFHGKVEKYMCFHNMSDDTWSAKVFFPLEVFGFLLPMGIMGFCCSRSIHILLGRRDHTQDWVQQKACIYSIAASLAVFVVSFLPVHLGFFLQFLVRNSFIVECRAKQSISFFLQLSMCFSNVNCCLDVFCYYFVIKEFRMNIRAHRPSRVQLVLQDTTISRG

[13] = cytotoxicity toward NIH3T3 fibroblasts, dose response, counter-screen, cell-based, ATP luminescence, mouse fibroblasts (AID 2010); format: functional;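 note: cells exposed to compound for about 90 hours before reading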
[14] = molecular target: Bcl-2-like protein 10 (Homo sapiens, UniProt Q9HD36); test: displacers of TR3 peptide from Bcl-B, primary screen, selectivity assay for Bfl-1 inhibitor project, biochemical, fluorescence polarization, FITC-TR3 peptide (AID 748);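 note: fluorescence polarization from a fluorescein-labelled TR3 peptide binding purified Bcl-B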
Sequence of Bcl-2-like protein 10 (Q9HD36 whole entry): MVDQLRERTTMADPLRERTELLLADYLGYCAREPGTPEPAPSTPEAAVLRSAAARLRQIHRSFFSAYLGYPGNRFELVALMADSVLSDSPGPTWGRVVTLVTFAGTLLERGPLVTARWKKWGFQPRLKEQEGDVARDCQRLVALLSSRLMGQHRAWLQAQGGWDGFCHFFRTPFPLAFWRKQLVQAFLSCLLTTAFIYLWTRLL

SMILES: C=CCOc1ccc(C2c3c(oc4ccccc4c3=O)C(=O)N2CCCN2CCOCC2)cc1 (centres undefined)
CC50 [1]: > 100 µM (active)

SMILES: Cc1ccc(CSc2nc(-c3ccccc3)c(C#N)c(=O)[nH]2)cc1
IC50 [2]: 6.9 µM (active)
EC50 [3]: 13.2 µM (active)
IC50 [4]: 7.62 µM (active)
EC50 [5]: 5.31 µM (active)
IC50 [6]: 21.2 µM (inactive)
IC50 [7]: 5.5 µM (active)
IC50 [8]: 8.2 µM (active)

SMILES: Cc1ccc(Cn2ncc3c(N4CCN(c5ccccc5C)CC4)ncnc32)cc1
IC50 [9]: 17.7 µM (not active)
IC50 [10]: 0.761 µM (active)
EC50 [11]: 1.6 µM (active)
IC50 [12]: > 32 µM (inactive)
EC50 [13]: > 60 µM (not active)

IC50 [14]: > 100 µM (inactive)
SMILES: Cc1cc2cc(CN(Cc3ccco3)S(=O)(=O)c3c(C)ccc4nsnc34)c(=O)[nH]c2cc1C
